Reference: US12297190B2, “Modulators of STING (stimulator of interferon genes)” (PFIZER INC., priority 2019, dated 2025)
pEC50, pKi: −log10 of the molar value. Counter-ions that a name gives are not always drawn.

What was measured:
[1] = biological target: T1, STING (Homo sapiens, UniProt Q86WV6, G230A/H232R/R293Q/R71H); test: Interferon-β induction: THP-1 Lucia ISG reporter cell line; type: cell-based; settings: THP-1 Lucia ISG cells, 24 hours incubation, luciferase reporter; read-out: THP-1 Lucia ISG Cells IFN-β EC50
T1 construct: host or cells: THP-1 and THP-1 Lucia ISG cells
T1 sequence (Q86WV6 whole entry R71H/G230A/H232R/R293Q): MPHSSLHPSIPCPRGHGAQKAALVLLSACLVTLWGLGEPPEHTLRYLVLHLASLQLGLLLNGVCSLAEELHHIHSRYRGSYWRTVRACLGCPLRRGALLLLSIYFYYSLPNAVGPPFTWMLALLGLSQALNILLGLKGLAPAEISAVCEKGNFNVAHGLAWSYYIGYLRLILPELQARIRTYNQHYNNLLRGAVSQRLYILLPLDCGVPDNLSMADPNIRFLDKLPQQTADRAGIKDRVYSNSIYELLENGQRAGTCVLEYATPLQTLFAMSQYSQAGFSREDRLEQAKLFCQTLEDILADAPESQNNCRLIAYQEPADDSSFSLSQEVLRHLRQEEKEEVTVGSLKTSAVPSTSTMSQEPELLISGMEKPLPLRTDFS
Procedure: Interferon-β Induction: THP-1 ISG Reporter Cell Line
THP-1 Lucia™ ISG cells (InvivoGen) express the secreted luciferase “Lucia” reporter gene under the control of an IRF-inducible composite promotor comprised of five interferon response elements. THP-1 Lucia™ ISG cells were grown in RPMI media plus 2 mM L-glutamine, 10% fetal bovine serum, and 0.5% Pen-Strep. Hygromycin B and Zeocin were present to maintain stable transfection. 10^4 cells were seeded in 96-well plates and incubated overnight 37° C., 5% CO2. 50 μL of serial diluted compounds in media (final 0.5% DMSO) was and incubated for an additional 24 hours. After incubation, the plates were centrifuged at 2000 rpm for 10 min. 50 μl of cell culture supernatant of each well was transferred to a white, opaque 96-well plate. One pouch of QUANTI-Luc™ (InvivoGen) powder was prepared in 25 mL of endotoxin-free water and 100 μL of prepared warm QUANTI-Luc solution were added to each well containing the supernatant. The luminescence signal was measured using a Perkin-Elmer Envision microplate reader. Data were normalized to “% effect” with a positive control STING agonist that was known to maximize the luciferase signal and the negative control DMSO.

[2] = biological target: T1, STING; test: Phosphorylation of IRF3: THP-1 cell ELISA; type: cell-based; settings: THP-1 cells, 3 hours incubation, phospho-IRF3 ELISA; read-out: THP-1 CELL P-IRF3 EC50
Procedure: Phosphorylation of IRF3: THP-1 Cell ELISA
STING activation results in recruitment of TBK1 and phosphorylation of IRF3 transcription factor before induction of type I interferons. THP-1 cells (InvivoGen) were grown in RPMI media plus 2 mM L-glutamine, 10% fetal bovine serum, and 0.5% Pen-Strep. 10^4 cells were seeded in 96-well plates and incubated overnight 37° C., 5% CO2. Compounds serial diluted compounds in media (final 0.5% DMSO) were added to the cells and incubated for an additional 3 hours. After incubation, the plates were centrifuged at 2000 rpm for 5 min. The cells were then lysed in 100 μl RIPA buffer and vortexed for 30 minutes at room temperature. 25 μl of lysate was then transferred to clear polystyrene High Bind plates that had been previously coated with mouse anti-human IRF-3 capture antibody (BD Pharmigen), and allowed to incubate at 4° C. for 16 hours. The plates were then washed and incubated with rabbit anti-phospho-IRF3 detection antibody (Cell Signaling Technologies) for 1.5 hours at room temperature. Finally, an HRP-linked secondary antibody (Cell Signaling Technologies) was added for 30 min before the Glo Substrate Reagent (R&D Systems) was used generate the luminescent signal. The signal was measured using a Perkin-Elmer Envision microplate reader. Data were normalized to “% effect” with a positive control STING agonist that was known to maximize the phosphorylated IRF3 signal and the negative control was DMSO.

[3] = biological target: R232-STING (Homo sapiens, UniProt Q86WV6, H232R); test: biochemical
Chain of R232-STING (Q86WV6 155-341 H232R): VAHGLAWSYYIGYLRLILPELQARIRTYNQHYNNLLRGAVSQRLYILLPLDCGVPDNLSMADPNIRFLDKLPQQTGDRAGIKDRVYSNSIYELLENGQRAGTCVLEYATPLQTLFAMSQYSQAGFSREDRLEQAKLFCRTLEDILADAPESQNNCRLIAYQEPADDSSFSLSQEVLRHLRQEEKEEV

| Structure (SMILES) | pEC50 [1] | pEC50 [2] | pKi [3] |
| --- | --- | --- | --- |
| CCn1nc(CO)cc1-c1nc(-c2nc(C(N)=O)cc3c2cnn3C)n(C)n1 [Example AB01, 4-{3-[1-ethyl-3-(hydroxymethyl)-1H-pyrazol-5-yl]-1-methyl-1H-1,2,4-triazol-5-yl}-1-methyl-1H-pyrazolo[4,3-c]pyridine-6-carboxamide] | 5.30 | 5.43 | 7.63 |
| CCn1nc(C)c(F)c1-c1n[nH]c(-c2cc(C(N)=O)cc3c2cnn3CCCN)n1 [YY12, 1-(3-aminopropyl)-4-[3-(1-ethyl-4-fluoro-3-methyl-1H-pyrazol-5-yl)-1H-1,2,4-triazol-5-yl]-1H-indazole-6-carboxamide] | < 4.00 | < 4.00 | 6.14 |
| CCn1nc(C)cc1-c1n[nH]c(-c2c(F)c(C(N)=O)cc3c2cnn3C)n1 [Example E01, 4-[3-(1-ethyl-3-methyl-1H-pyrazol-5-yl)-1H-1,2,4-triazol-5-yl]-5-fluoro-1-methyl-1H-indazole-6-carboxamide] | 6.19 | 6.19 | 7.54 |
| CCn1nc(C)cc1-c1csc(-c2cc(C(N)=O)cc3c2cnn3C)n1 [Example H01, 4-[4-(1-ethyl-3-methyl-1H-pyrazol-5-yl)-1,3-thiazol-2-yl]-1-methyl-1H-indazole-6-carboxamide] | 5.14 | 4.96 | 7.06 |
| CCn1nc(C)cc1-c1n[nH]c(-c2cc(C(N)=O)cc3c2cnn3CCCC(=O)O)n1 [YY02, 4-{6-carbamoyl-4-[3-(1-ethyl-3-methyl-1H-pyrazol-5-yl)-1H-1,2,4-triazol-5-yl]-1H-indazol-1-yl}butanoic acid] | < 4.00 | < 4.00 | 7.07 |
| CCn1nc(C)cc1-c1n[nH]c(-c2cc(C(N)=O)cc3c2cnn3C(C)CN2CCOCC2)n1 (centres unmarked) [Example D06, 4-[5-(1-ethyl-3-methyl-1H-pyrazol-5-yl)-4H-1,2,4-triazol-3-yl]-1-[1-(morpholin-4-yl)propan-2-yl]-1H-indazole-6-carboxamide] | ≤ 4.00 | 4.08 | 6.52 |
| CCn1nc(C)cc1-c1nnc(-c2cc(C(N)=O)cc3c2cnn3CC[C@H](C)C2CCNCC2)[nH]1 (racemic) [YY18, 4-[5-(1-ethyl-3-methyl-1H-pyrazol-5-yl)-4H-1,2,4-triazol-3-yl]-1-[(3S)-3-(piperidin-4-yl)butyl]-1H-indazole-6-carboxamide] | < 4.00 | < 4.00 | 6.36 |
| CCn1nc(C)cc1-c1nc(-c2nc(C(N)=O)cc3c2cnn3C)c(C(C)N)s1 (racemic) [Compound W-7, 1-(4-(6-carbamoyl-1-methyl-1H-pyrazolo[4,3-c]pyridin-4-yl)-2-(1-ethyl-3-methyl-1H-pyrazol-5-yl)thiazol-5-yl)ethan-1-aminium trifluoroacetate] | 5.73 | 5.82 | 7.48 |
| CCn1ncc(O)c1-c1nc(-c2nc(C(N)=O)cc3c2cnn3C)c(CN)o1 [Example U02] | 5.21 | 5.19 | 7.29 |
| CCn1nc(C)c(O)c1-c1nc(-c2nc(C(N)=O)cc3c2cnn3C)co1 [Example AE01, 4-[2-(1-ethyl-4-hydroxy-3-methyl-1H-pyrazol-5-yl)-1,3-oxazol-4-yl]-1-methyl-1H-pyrazolo[4,3-c]pyridine-6-carboxamide] | 6.80 | 6.70 | 8.59 |
| CCn1nc(C)cc1-c1n[nH]c(-c2cc(C(N)=O)cc3c2cnn3CC(=O)O)n1 [Example P01, {6-carbamoyl-4-[3-(1-ethyl-3-methyl-1H-pyrazol-5-yl)-1H-1,2,4-triazol-5-yl]-1H-indazol-1-yl}acetic acid] | ≤ 4.00 | 4.12 | 6.62 |
| CCn1nc(C)cc1-c1nnc(-c2cc(C(N)=O)cc3c2cnn3CC2(C)CC(OC)CN2C)[nH]1 (centres unmarked) [YY10, 4-[5-(1-ethyl-3-methyl-1H-pyrazol-5-yl)-4H-1,2,4-triazol-3-yl]-1-[(4-methoxy-1,2-dimethylpyrrolidin-2-yl)methyl]-1H-indazole-6-carboxamide] | < 4.00 | < 4.00 | 6.63 |
| CCn1cc2c(-c3nc(-c4cc(C)nn4CC)n[nH]3)cc(C(N)=O)cc2n1 [Example B02, 2-ethyl-4-[3-(1-ethyl-3-methyl-1H-pyrazol-5-yl)-1H-1,2,4-triazol-5-yl]-2H-indazole-6-carboxamide] | 5.20 | 5.10 | 7.34 |
| CCn1nc(C)cc1-c1nc(-c2nc(C(N)=O)cc3c2cnn3C)c(CN)o1 [Example T01, 4-[5-(aminomethyl)-2-(1-ethyl-3-methyl-1H-pyrazol-5-yl)-1,3-oxazol-4-yl]-1-methyl-1H-pyrazolo[4,3-c]pyridine-6-carboxamide] | 5.84 | 6.01 | 7.56 |
| CCn1nc(C)cc1-c1nc(-c2cc(C(N)=O)cc3c2cnn3C)nn1COP(=O)(O)O [Example N01, [3-(6-carbamoyl-1-methyl-1H-indazol-4-yl)-5-(1-ethyl-3-methyl-1H-pyrazol-5-yl)-1H-1,2,4-triazol-1-yl]methyl dihydrogenphosphate] | 4.11 | ≤ 4.00 | – |

Further lines, results first:

| pEC50 [1] | pEC50 [2] | pKi [3] | Structure (SMILES) |
| --- | --- | --- | --- |
| < 4.48 | < 4.48 | 7.69 | CCn1nc(C)cc1-c1nc(-c2nc(C(N)=O)cc3c2cnn3C)n(CC(=O)O)n1 [YY29, [5-(6-carbamoyl-1-methyl-1H-pyrazolo[4,3-c]pyridin-4-yl)-3-(1-ethyl-3-methyl-1H-pyrazol-5-yl)-1H-1,2,4-triazol-1-yl]acetic acid] |
| < 5.00 | < 5.00 | 7.07 | CCn1nc(C)c(O)c1-c1n[nH]c(-c2nc(C(N)=O)cc3c2cnn3CCN2CCOCC2)n1 [YY34, 4-[3-(1-ethyl-4-hydroxy-3-methyl-1H-pyrazol-5-yl)-1H-1,2,4-triazol-5-yl]-1-[2-(morpholin-4-yl)ethyl]-1H-pyrazolo[4,3-c]pyridine-6-carboxamide] |
| < 4.48 | < 4.48 | 6.34 | CCn1nc(C)cc1-c1n[nH]c(-c2cc(C(N)=O)cc3c2cnn3CCN2C3CCC2COC3)n1 [YY23, 4-[3-(1-ethyl-3-methyl-1H-pyrazol-5-yl)-1H-1,2,4-triazol-5-yl]-1-[2-(3-oxa-8-azabicyclo[3.2.1]octan-8-yl)ethyl]-1H-indazole-6-carboxamide] |
| < 5.00 | < 5.00 | 6.97 | CCn1nc(C)c(Cl)c1-c1nc(-c2nc(C(N)=O)cc3c2cnn3C)c(CN)s1 [YY35, 4-[5-(aminomethyl)-2-(4-chloro-1-ethyl-3-methyl-1H-pyrazol-5-yl)-1,3-thiazol-4-yl]-1-methyl-1H-pyrazolo[4,3-c]pyridine-6-carboxamide] |
| < 4.88 | < 5.00 | 6.80 | CCn1nc(C)cc1-c1nc(-c2nc(C(N)=O)cc3c2cnn3C)n(CCCN)n1 [YY31, 4-[1-(3-aminopropyl)-3-(1-ethyl-3-methyl-1H-pyrazol-5-yl)-1H-1,2,4-triazol-5-yl]-1-methyl-1H-pyrazolo[4,3-c]pyridine-6-carboxamide] |
| < 4.00 | < 4.48 | 6.45 | CCn1nc(C)cc1-c1n[nH]c(-c2cc(C(N)=O)cc3c2cnn3CCN2CCO[C@@H](C)C2)n1 [YY24, 4-[3-(1-ethyl-3-methyl-1H-pyrazol-5-yl)-1H-1,2,4-triazol-5-yl]-1-{2-[(2S)-2-methylmorpholin-4-yl]ethyl}-1H-indazole-6-carboxamide] |
